Row | Compound | melting point
1 | CCn1cnc2c(Nc3cccc(Cl)c3)nc(N3CCC[C@@H]3C(N)=O)nc21 [Example 45, 2-[(R)-(−)-2-carbamoyl-pyrrolidin-1-yl]-6-(3-chloro-phenyl-amino)-9-ethyl-9H-purine] | > 230 °C
2 | COc1cccc(Nc2nc(NCCCO)nc3c2ncn3C(C)C)c1 [Example 27, 2-(3-hydroxy-propyl-amino)-6-(3-methoxy-phenyl-amino)-9-isopropyl-9H-purine] | 128 to 129 °C
3 | CCn1cnc2c(Nc3ccc(F)cc3)nc(NCCN)nc21.Cl | > 250 °C
4 | CCn1cnc2c(Nc3cccc(Cl)c3)nc(N3CCC[C@@H]3CN)nc21 [Example 46, 2-[(R)-2-Aminomethyl-pyrrolidin-1-yl]-6-(3-chloro-phenyl-amino)-9-ethyl-9H-purine] | 126 to 129 °C

Now from value to compound:

Row | melting point | Compound
5 | 184.3 °C | CCn1cnc2c(Nc3cccc(Cl)c3)nc(N3CCCC(NC=O)C3)nc21 (stereo not shown) [Example 48, 6-(3-chloro-phenyl-amino)-9-ethyl-2-(3-formylamino-piperidin-1-yl)-9H-purine]
6 | > 250 °C | CCn1cnc2c(Nc3cccc(C(F)(F)F)c3)nc(NCCN)nc21 [Example 95, 2-(2-amino-ethyl-amino)-9-ethyl-6-(3-trifluoromethyl-phenyl-amino)-9H-purine]
7 | 117 to 121 °C | CCn1cnc2c(Nc3cccc(Cl)c3)nc(N[C@@H](C)C(N)=O)nc21 [Example 49, 2-[(S)-1-carbamoyl-ethylamino]-6-(3-chloro-phenyl-amino)-9-ethyl-9H-purine]

Reference: patent publication US7091346B1, “Purine derivatives and processes for their preparation” (Novartis AG, priority 1995, dated 2006)
